Oligonucleotides are written 5' to 3', each unit as a sugar letter and its base; * is a phosphorothioate linkage, no mark a phosphodiester; rarer units and linkages stand in square brackets, end groups in braces. Plain capitals give the bases only. {NH2-C6} = C6 amine reactive group for conjugation; {Alk-cyHex} = alkyne-cyclohexyl conjugation group; [invAb] = inverted abasic deoxyribose residue; [C6-SS-C6] = C6-disulfide-C6 linker; d = 2'-deoxy (DNA); m = 2'-O-methyl; f = 2'-fluoro
What follows are substances tested on myostatin mRNA (assay: MSTN expression in triceps of mice by qPCR TaqMan assay (Example 7)). Details: Day 22, mice, 3 mg/kg single injection on Day 1, n=4.
Type: in vivo
Experimental: On Study Day 1, mice were injected with either isotonic saline (vehicle control) or 3 mg/kg (mpk) of RNAi agent formulated in isotonic saline according to the following dosing Groups:
The RNAi agents in Example 7 were synthesized having nucleotide sequences directed to target the MSTN gene, and groups 1 and 3 included a functionalized amine reactive group (NH2-C6) at the 5′ terminal end of the sense strand to facilitate conjugation to L4 which could then be conjugated to the small molecule targeting ligand Compound 45b. Group 2 included an (Alk-cyHex)s (see Table 28 for structure details) which was conjugated to the small molecule targeting ligand Compound 45b. The myostatin RNAi agents further included a PEG48+C22 PK/PD modulator, which was linked to the 3′ end of the sense strand.
Four (4) mice were dosed in each Group (n=4). Mice were sacrificed on study day 22, and total myostatin mRNA was isolated from the triceps. Triceps were harvested from right front limb. Each sample was snap-frozen in percellys tubes and stored in a −80° C. freezer until assays were completed. Relative MSTN expression was determined by qPCR TaqMan Assay on muscle tissue.

Compared with “AD06326: AS: usGfsusUfaCfagcaaGfaUfcAfuGfgCfsc; SS: (NH2-C6)s(invAb)sggccaugaUfCfUfugcuguaacas(invAb)(C6-SS-C6)dT (antisense mU*fG*mU*fUmAfCmAmGmCmAmAfGmAfUmCfAmUfGmGfC*mC; sense {NH2-C6}*[invAb]*mGmGmCmCmAmUmGmAfUfCfUmUmGmCmUmGmUmAmAmCmA*[invAb][C6-SS-C6]dT; siRNA; Compound 45b ligand via L4 on sense 5' amine, PEG48+C22 at sense 3')”, “AD06912: AS: usGfsusUfaCfagcaaGfaUfcAfuGfgCfsc; SS: (Alk-cyHex)s(invAb)sggccaugaUfCfUfugcuguaacas(invAb)(C6-SS-C6)dT (antisense mU*fG*mU*fUmAfCmAmGmCmAmAfGmAfUmCfAmUfGmGfC*mC; sense {Alk-cyHex}*[invAb]*mGmGmCmCmAmUmGmAfUfCfUmUmGmCmUmGmUmAmAmCmA*[invAb][C6-SS-C6]dT; siRNA; Compound 45b ligand on sense 5' Alk-cyHex, PEG48+C22 at sense 3')” is lower in “Average relative MSTN expression, Relative Expression” value: 0.296 for the first, 0.253 for the second.

With “AD06916: AS: usGfsusUfaCfagcaaGfaUfcAfuGfgCfsc; SS: (NH2-C6)s(invAb)sggccaugaUfCfUfugcuguaacas(invAb)s(C6-SS-C6)dT (antisense mU*fG*mU*fUmAfCmAmGmCmAmAfGmAfUmCfAmUfGmGfC*mC; sense {NH2-C6}*[invAb]*mGmGmCmCmAmUmGmAfUfCfUmUmGmCmUmGmUmAmAmCmA*[invAb]*[C6-SS-C6]dT; siRNA; Compound 45b ligand via L4 on sense 5' amine, PEG48+C22 at sense 3')” the “Average relative MSTN expression, Relative Expression” value was 0.295.
